Patent US9512180B2, “Compstatin analogs” (THE REGENTS OF THE UNIVERSITY OF CALIFORNIA, priority 2012, dated 2016)
“Also recorded” adds a separate entry of the source. Bridge positions count the residues as written; N and C are the ends. Peptide text beside a SMILES is read from it.

Legend:
[1] = system: complement alternative pathway (AP); test: C3b ELISA (inhibition of C3b formation); format: biochemical, human; details: table 13; read-out: C3b ELISA IC50
Method: (§1) Inhibition of the complement alternative pathway (AP) by compstatin family peptides was assayed by ELISA. Peptides were dissolved in phosphate buffered saline (PBS, 150 mM). Initial peptide concentrations were calculated using the Beer-Lambert Law with an extinction coefficient of 5,500 (1/M·cm) for Trp and 5,470 (1/M·cm) for methylated-Trp present in the sequence, at 280 nm. Nunc Maxisorp 96-well plates were coated with 1 μg lipopolysaccharides (LPS) from Salmonella enteriditis for ˜16 h at room temperature. Plates were washed three times with PBS/0.05% Tween-20 (PBS-T) between each step. Plates were blocked with 4% bovine serum albumin (BSA) in PBS-T for 1 h at 37° C. Serial peptide dilutions were performed in 96-well plates, using gelatin veronal-buffered saline with 5 mM MgCl2 and 10 mM EGTA (GVBS-MgEGTA). Normal human serum (Complement Technology Inc., Tyler, Tex., USA) was diluted in GVBS-MgEGTA and mixed with compstatin serial dilutions to a final concentration of 30%. Serum diluted in GVBS-MgEGTA and GVBS (containing 20 mM EDTA) were used as positive and negative controls for complement activation, respectively. Dilutions were preincubated for 15 minutes at room temperature, transferred to ELISA plates, and incubated for 1 h at 37° C. Generation of C3b and C5b-9 were assayed using horseradish peroxidase (HRP)-conjugated anti-C3 (MP Biomedicals, Solon, Ohio, USA) and anti-05b-9 aEll (Abcam, Cambridge, Mass., USA), respectively. Plates were washed and incubated with either anti-C3-HRP (1:5000 in 1% BSA/PBS-T) or anti-05b-9 (1:1000 in 1% BSA/PBS-T) for 1 h at 37° C. For C5b-9 detection, primary antibody incubation was followed by incubation with anti-mouse-HRP (BioRad, Hercules, Calif., USA) for 1 h at 37° C. (1:5000 in 1% BSA/PBS-T). Bound C3b and C5b-9 were quantified using a 3,3′,5,5′-tetramethylbenzidine substrate solution containing urea hydrogen peroxide in 0.11 M sodium acetate buffer, followed by a 1 N H2SO4 acid stop. Plates were measured spectrophotometrically at 450 nm. Percent inhibition of C3b and C5b-9 deposition was plotted against peptide concentration and the data was fitted to a logistic dose response curve with Prism software (GraphPad, San Diego, Calif., USA) to determine IC50 values.
(§2) In all assays, MgEGTA was used to chelate Ca′ ions required for classical/lectin pathway complement activation, while providing Mg′ necessary for AP activation. ELISAs allow for direct detection of C3b and C5b-9 formed during AP activation, while erythrocyte lysis assays provide a functional assessment of AP-mediated hemolysis in serum. […] Table 9 summarizes the IC50 values derived from the three different assays. […] The relative potencies of the peptides, based on the measured ICH values, are consistent across all three assays (Peptide III˜Peptide VI˜Peptide IX>Peptide I>Parent). Based on the assay conditions used in this study, peptides inhibited C5b-9 formation with moderately better efficacy than formation of C3b, while slightly higher concentrations were necessary to inhibit AP-mediated hemolysis.

[2] = system: complement alternative pathway (AP); test: C5b-9 ELISA (inhibition of C5b-9 terminal complex formation); format: biochemical, human; details: table 13; read-out: C5b-9 ELISA IC50
Method: as §1, §2

[3] = system: complement alternative pathway (AP); test: Hemolytic assay (rabbit erythrocyte lysis in human serum); format: cell-based; details: table 13; read-out: Lysis IC50
Method: Inhibition of complement was also measured via lysis of erythrocytes. Rabbit erythrocytes (Complement Technology Inc., Tyler, Tex., USA) were washed in PBS and resuspended in veronal-buffered saline with 5 mM MgCl2 and 10 mM EGTA (VBS-MgEGTA). Peptide and serum dilutions were prepared as described above, and 1×10^7 erythrocytes were added to each serum/peptide mixture. Erythrocytes diluted in sterile deionized water and in VBS-MgEGTA were used as positive and negative controls for lysis, respectively. Plates were incubated for 20 minutes at 37° C., and centrifuged at 2500×g for 10 minutes.
In all assays, MgEGTA was used to chelate Ca′ ions required for classical/lectin pathway complement activation, while providing Mg′ necessary for AP activation. ELISAs allow for direct detection of C3b and C5b-9 formed during AP activation, while erythrocyte lysis assays provide a functional assessment of AP-mediated hemolysis in serum.

complement system = test: Preliminary ELISA-based complement system inhibition assays, human serum; format: biochemical; details: preliminary data
From the text: For some of the peptides studied here, W1, W13, R1, and S-1S0, there is experimental evidence for inhibitory activity against hC3. […] The structural rationale was that the positively charged backbone amino group was disrupting the hydrophobic cluster at the termini (spanning residues 11-C2-V3-V4/C12/T13 of native compstatin), which was deemed necessary for binding and activity before the availability of the structure of the C3c-W4A9 complex, and that upon removal of the positive charge by acetylation the hydrophobic cluster was fortified and contributed to the 3-fold increase in activity. […] The peptide with the diserine extension is expected to be active, as the diserine was present at the N-terminus of the original 32-amino acid peptide that was identified in the phage-display and a subsequent study.

hC3 = hC3 (Homo sapiens, UniProt P01024); test: Activity measurements of inhibitory activity against hC3 (method not described); details: relative to W4A9
[4] = Experimental solubility of analogs (method not described); format: physicochemical; details: aqueous environment

Chain of hC3 (P01024 23-1663): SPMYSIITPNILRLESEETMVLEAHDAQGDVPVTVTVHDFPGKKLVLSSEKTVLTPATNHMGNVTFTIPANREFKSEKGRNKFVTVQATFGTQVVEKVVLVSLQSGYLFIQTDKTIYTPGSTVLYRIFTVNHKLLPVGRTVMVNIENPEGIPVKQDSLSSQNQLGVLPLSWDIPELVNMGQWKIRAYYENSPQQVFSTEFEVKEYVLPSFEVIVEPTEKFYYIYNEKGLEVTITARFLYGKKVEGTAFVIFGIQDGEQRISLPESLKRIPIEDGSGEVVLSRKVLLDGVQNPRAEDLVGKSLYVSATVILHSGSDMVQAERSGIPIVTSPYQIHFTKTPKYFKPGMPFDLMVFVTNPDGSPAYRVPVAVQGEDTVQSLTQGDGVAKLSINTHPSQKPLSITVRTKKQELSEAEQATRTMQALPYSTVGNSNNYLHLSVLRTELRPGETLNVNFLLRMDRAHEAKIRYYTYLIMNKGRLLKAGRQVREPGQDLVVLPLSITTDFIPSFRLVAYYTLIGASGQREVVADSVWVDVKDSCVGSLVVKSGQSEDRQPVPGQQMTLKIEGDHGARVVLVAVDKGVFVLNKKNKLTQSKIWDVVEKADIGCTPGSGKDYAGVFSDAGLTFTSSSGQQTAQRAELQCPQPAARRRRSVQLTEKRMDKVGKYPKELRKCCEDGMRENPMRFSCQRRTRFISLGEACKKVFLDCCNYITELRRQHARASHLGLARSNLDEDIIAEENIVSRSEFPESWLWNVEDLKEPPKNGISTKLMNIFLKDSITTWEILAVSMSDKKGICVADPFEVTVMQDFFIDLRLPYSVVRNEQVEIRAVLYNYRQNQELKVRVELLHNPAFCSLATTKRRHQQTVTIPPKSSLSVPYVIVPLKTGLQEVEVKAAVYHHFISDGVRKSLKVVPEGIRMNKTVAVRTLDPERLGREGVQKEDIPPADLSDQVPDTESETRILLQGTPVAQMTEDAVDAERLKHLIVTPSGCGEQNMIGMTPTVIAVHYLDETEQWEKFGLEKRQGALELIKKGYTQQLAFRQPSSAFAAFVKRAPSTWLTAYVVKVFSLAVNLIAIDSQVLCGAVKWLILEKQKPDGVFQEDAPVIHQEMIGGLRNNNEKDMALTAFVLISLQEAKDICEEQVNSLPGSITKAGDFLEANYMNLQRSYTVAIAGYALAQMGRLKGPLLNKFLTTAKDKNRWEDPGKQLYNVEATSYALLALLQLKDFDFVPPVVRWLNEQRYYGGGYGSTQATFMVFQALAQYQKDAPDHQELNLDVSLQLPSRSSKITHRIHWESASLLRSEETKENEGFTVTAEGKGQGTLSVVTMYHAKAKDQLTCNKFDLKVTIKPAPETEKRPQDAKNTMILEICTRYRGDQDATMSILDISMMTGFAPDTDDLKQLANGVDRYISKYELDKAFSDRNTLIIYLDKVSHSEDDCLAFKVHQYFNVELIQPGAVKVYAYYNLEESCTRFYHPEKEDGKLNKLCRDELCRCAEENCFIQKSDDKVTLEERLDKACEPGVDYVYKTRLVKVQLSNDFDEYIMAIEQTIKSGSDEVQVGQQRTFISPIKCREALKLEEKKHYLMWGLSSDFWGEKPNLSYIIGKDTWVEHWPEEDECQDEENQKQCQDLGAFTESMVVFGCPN

Structure (SMILES)	IC50 [1]	IC50 [2]	IC50 [3]	inhibitory activity in human serum (in words) (complement system)	inhibitory activity against hC3 (in words) (hC3)	solubility (in words) [4]
CC[C@H](C)[C@H](NC(=O)[C@H](CCCNC(=N)N)NC(=O)[C@H](CCC(=O)O)NC(C)=O)C(=O)N[C@H]1CSSC[C@@H](C(=O)N[C@H](C(N)=O)[C@@H](C)O)NC(=O)[C@H](CCCNC(=N)N)NC(=O)[C@H](Cc2c[nH]cn2)NC(=O)[C@H](C)NC(=O)CNC(=O)[C@H](Cc2c[nH]c3ccccc23)NC(=O)[C@H](CC(=O)O)NC(=O)[C@H](CCC(N)=O)NC(=O)[C@H](Cc2c[nH]c3ccccc23)NC(=O)[C@H](C(C)C)NC1=O [Peptide 3.1, Ac-ER-ICV WQDWGA HRCT-NH2]	0.9 ± 0.1 µM	0.5 ± 0.1 µM	0.9 ± 0.2 µM	–	–	–
CC(=O)N[C@@H](CC(N)=O)C(=O)N[C@@H](CC(N)=O)C(=O)N[C@@H](CC(C)C)C(=O)N[C@H]1CSSC[C@@H](C(=O)N[C@H](C(N)=O)[C@@H](C)O)NC(=O)[C@H](CCCNC(=N)N)NC(=O)[C@H](Cc2c[nH]cn2)NC(=O)[C@H](C)NC(=O)CNC(=O)[C@H](Cc2c[nH]c3ccccc23)NC(=O)[C@H](CC(=O)O)NC(=O)[C@H](CCC(N)=O)NC(=O)[C@H](Cc2c[nH]c3ccccc23)NC(=O)[C@H](C(C)C)NC1=O [Peptide 3.2, Ac-NN-LCV WQDWGA HRCT-NH2] (Ac-NNLCVWQDWGAHRCT-NH2; disulfide 4-14)	0.6 ± 0.1 µM	0.5 ± 0.1 µM	0.3 ± 0.1 µM	–	–	–
CC(=O)N[C@@H](CC(N)=O)C(=O)N[C@@H](CCCNC(=N)N)C(=O)N[C@@H](CC(C)C)C(=O)N[C@H]1CSSC[C@@H](C(=O)N[C@H](C(N)=O)[C@@H](C)O)NC(=O)[C@H](CCCNC(=N)N)NC(=O)[C@H](Cc2c[nH]cn2)NC(=O)[C@H](C)NC(=O)CNC(=O)[C@H](Cc2c[nH]c3ccccc23)NC(=O)[C@H](CC(=O)O)NC(=O)[C@H](CCC(N)=O)NC(=O)[C@H](Cc2c[nH]c3ccccc23)NC(=O)[C@H](C(C)C)NC1=O [Peptide 3.3, Ac-NR-LCV WQDWGA HRCT-NH2] (Ac-NRLCVWQDWGAHRCT-NH2; disulfide 4-14)	0.6 ± 0.1 µM	0.5 ± 0.1 µM	0.3 ± 0.1 µM	–	–	–
CC[C@H](C)[C@H](NC(=O)[C@H](CO)NC(=O)[C@H](CCCNC(=N)N)NC(C)=O)C(=O)N[C@H]1CSSC[C@@H](C(=O)N[C@H](C(N)=O)[C@@H](C)O)NC(=O)[C@H](CCCNC(=N)N)NC(=O)[C@H](Cc2c[nH]cn2)NC(=O)[C@H](C)NC(=O)CNC(=O)[C@H](Cc2c[nH]c3ccccc23)NC(=O)[C@H](CC(=O)O)NC(=O)[C@H](CCC(N)=O)NC(=O)[C@H](Cc2c[nH]c3ccccc23)NC(=O)[C@H](C(C)C)NC1=O [Peptide 3.4, Ac-RS-ICV WQDWGA HRCT-NH2]	0.7 ± 0.1 µM	0.6 ± 0.1 µM	0.3 ± 0.1 µM	–	–	–
CC[C@H](C)[C@H](NC(=O)[C@H](CO)NC(=O)[C@H](CO)NC(C)=O)C(=O)N[C@H]1CSSC[C@@H](C(=O)N[C@H](C(N)=O)[C@@H](C)O)NC(=O)[C@H](CCCNC(=N)N)NC(=O)[C@H](Cc2c[nH]cn2)NC(=O)[C@H](C)NC(=O)CNC(=O)[C@H](Cc2c[nH]c3ccccc23)NC(=O)[C@H](CC(=O)O)NC(=O)[C@H](CCC(N)=O)NC(=O)[C@H](Cc2c[nH]c3ccccc23)NC(=O)[C@H](C(C)C)NC1=O [Peptide IV, Ac-SS-ICV WQDWGA HRCT-NH2]	–	–	–	higher than those of native compstatin and slightly lower than those of the W4A9 analog	–	–
CC(=O)N[C@@H](Cc1c[nH]c2ccccc12)C(=O)N[C@H]1CSSC[C@@H](C(=O)N[C@@H](Cc2c[nH]c3ccccc23)C(N)=O)NC(=O)[C@H](CCCNC(=N)N)NC(=O)[C@H](Cc2c[nH]cn2)NC(=O)[C@H](C)NC(=O)CNC(=O)[C@H](Cc2c[nH]c3ccccc23)NC(=O)[C@H](CC(=O)O)NC(=O)[C@H](CCC(N)=O)NC(=O)[C@H](Cc2c[nH]c3ccccc23)NC(=O)[C@H](C(C)C)NC1=O [Peptide W1W13] (Ac-WCVWQDWGAHRCW-NH2; disulfide 2-12)	–	–	–	–	slightly reduced activities	slightly reduced activities and solubilities
CC(=O)N[C@@H](Cc1c[nH]c2ccccc12)C(=O)N[C@H]1CSSC[C@@H](C(=O)N[C@H](C(N)=O)[C@@H](C)O)NC(=O)[C@H](CCCNC(=N)N)NC(=O)[C@H](Cc2c[nH]cn2)NC(=O)[C@H](C)NC(=O)CNC(=O)[C@H](Cc2c[nH]c3ccccc23)NC(=O)[C@H](CC(=O)O)NC(=O)[C@H](CCC(N)=O)NC(=O)[C@H](Cc2c[nH]c3ccccc23)NC(=O)[C@H](C(C)C)NC1=O [Peptide W1] (Ac-WCVWQDWGAHRCT-NH2; disulfide 2-12)	–	–	–	–	near-W4A9 inhibitory activity	good solubility
CC[C@H](C)[C@H](NC(C)=O)C(=O)N[C@H]1CSSC[C@@H](C(=O)N[C@@H](Cc2c[nH]c3ccccc23)C(N)=O)NC(=O)[C@H](CCCNC(=N)N)NC(=O)[C@H](Cc2c[nH]cn2)NC(=O)[C@H](C)NC(=O)CNC(=O)[C@H](Cc2c[nH]c3ccccc23)NC(=O)[C@H](CC(=O)O)NC(=O)[C@H](CCC(N)=O)NC(=O)[C@H](Cc2c[nH]c3ccccc23)NC(=O)[C@H](C(C)C)NC1=O [Peptide W13] (Ac-ICVWQDWGAHRCW-NH2; disulfide 2-12)	–	–	–	–	slightly reduced activities	slightly reduced activities and solubilities; also recorded: solubility problems in aqueous environment
